Results taken from ChEMBL document CHEMBL5291721, “A preclinical secondary pharmacology resource illuminates target-adverse drug reaction associations of marketed drugs” (Nat Commun, 2023).

Tests used:
[1] = target: T1, Prostaglandin G/H synthase 1 (Rattus norvegicus, UniProt Q63921); assay type: functional
T1 sequence (Q63921 whole entry): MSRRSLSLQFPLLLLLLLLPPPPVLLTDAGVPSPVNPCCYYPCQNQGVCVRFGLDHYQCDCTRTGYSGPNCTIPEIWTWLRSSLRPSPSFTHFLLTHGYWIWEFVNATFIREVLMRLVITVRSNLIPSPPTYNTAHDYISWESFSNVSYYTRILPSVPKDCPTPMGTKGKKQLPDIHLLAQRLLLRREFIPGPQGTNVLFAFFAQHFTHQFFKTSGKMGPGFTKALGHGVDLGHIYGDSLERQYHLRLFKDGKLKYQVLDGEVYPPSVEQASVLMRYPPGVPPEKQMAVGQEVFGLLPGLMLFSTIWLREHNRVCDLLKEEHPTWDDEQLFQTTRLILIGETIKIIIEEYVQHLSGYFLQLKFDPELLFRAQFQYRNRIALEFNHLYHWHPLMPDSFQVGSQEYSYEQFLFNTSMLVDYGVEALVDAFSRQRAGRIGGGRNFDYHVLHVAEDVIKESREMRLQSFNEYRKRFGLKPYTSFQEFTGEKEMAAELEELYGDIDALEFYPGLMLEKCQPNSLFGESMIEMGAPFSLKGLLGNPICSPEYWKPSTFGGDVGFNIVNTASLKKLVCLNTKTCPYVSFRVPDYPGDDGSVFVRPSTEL

[2] = target: Glutamate receptor ionotropic, NMDA 1 (Rattus norvegicus, UniProt P35439)
[3] = target: Delta-type opioid receptor (Homo sapiens, UniProt P41143)
[4] = target: cGMP-inhibited 3',5'-cyclic phosphodiesterase 3A (Homo sapiens, UniProt Q14432); assay type: functional
Motilin receptor = Motilin receptor (Homo sapiens, UniProt O43193)
Histamine H2 receptor = Histamine H2 receptor (Homo sapiens, UniProt P25021); assay type: functional, cell-based
[5] = target: 3',5'-cyclic-AMP phosphodiesterase 4D (Homo sapiens, UniProt Q08499); assay type: functional
[6] = target: T2, Alpha-2C adrenergic receptor (Homo sapiens, UniProt P18825); assay type: functional
T2 sequence (P18825 whole entry): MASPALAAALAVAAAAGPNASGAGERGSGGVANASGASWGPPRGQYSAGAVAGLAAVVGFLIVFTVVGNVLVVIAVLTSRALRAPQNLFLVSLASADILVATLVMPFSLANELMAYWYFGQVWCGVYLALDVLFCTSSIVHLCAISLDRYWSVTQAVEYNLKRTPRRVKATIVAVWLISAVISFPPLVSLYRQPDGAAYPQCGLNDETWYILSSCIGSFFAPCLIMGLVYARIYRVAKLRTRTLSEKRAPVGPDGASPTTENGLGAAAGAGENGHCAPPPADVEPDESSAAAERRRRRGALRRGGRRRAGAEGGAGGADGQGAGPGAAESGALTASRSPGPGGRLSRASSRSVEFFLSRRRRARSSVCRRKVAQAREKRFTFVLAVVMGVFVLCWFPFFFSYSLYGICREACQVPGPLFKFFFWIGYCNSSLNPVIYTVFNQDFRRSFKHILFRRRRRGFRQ

[7] = target: T3, 5-hydroxytryptamine receptor 1A (Homo sapiens, UniProt P08908); assay type: functional, cell-based
T3 sequence (P08908 whole entry): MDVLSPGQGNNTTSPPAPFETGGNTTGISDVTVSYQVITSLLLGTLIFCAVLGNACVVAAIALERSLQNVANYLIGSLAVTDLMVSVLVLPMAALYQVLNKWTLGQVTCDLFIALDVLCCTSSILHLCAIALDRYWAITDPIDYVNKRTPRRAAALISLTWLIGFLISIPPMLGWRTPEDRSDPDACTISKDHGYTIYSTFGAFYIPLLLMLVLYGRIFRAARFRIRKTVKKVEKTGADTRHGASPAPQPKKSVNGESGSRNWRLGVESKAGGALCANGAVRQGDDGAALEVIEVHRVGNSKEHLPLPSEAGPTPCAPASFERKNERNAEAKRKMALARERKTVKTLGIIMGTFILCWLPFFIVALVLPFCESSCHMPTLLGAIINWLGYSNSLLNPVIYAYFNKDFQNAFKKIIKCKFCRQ

[8] = target: Beta-1 adrenergic receptor (Homo sapiens, UniProt P08588); assay type: functional
[9] = target: Sodium-dependent dopamine transporter (Homo sapiens, UniProt Q01959)
Note: assay procedure not described here.

Chain of Sodium-dependent dopamine transporter (Q01959 whole entry): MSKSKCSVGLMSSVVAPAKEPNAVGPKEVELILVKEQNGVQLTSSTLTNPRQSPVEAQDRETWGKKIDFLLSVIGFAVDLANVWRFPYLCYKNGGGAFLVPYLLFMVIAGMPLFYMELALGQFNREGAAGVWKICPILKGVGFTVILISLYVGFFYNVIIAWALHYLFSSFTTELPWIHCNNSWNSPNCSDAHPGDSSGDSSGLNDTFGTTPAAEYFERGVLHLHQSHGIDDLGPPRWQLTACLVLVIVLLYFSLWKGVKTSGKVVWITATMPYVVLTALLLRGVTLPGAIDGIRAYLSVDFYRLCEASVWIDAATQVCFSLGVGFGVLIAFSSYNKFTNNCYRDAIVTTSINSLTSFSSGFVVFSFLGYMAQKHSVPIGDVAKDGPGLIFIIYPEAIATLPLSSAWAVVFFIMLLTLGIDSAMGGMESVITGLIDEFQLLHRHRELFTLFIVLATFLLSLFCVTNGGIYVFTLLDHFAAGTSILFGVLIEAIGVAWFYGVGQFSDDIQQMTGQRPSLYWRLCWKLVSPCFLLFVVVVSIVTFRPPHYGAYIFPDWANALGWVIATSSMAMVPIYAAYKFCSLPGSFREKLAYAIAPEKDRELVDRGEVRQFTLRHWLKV
Chain of 3',5'-cyclic-AMP phosphodiesterase 4D (Q08499 whole entry): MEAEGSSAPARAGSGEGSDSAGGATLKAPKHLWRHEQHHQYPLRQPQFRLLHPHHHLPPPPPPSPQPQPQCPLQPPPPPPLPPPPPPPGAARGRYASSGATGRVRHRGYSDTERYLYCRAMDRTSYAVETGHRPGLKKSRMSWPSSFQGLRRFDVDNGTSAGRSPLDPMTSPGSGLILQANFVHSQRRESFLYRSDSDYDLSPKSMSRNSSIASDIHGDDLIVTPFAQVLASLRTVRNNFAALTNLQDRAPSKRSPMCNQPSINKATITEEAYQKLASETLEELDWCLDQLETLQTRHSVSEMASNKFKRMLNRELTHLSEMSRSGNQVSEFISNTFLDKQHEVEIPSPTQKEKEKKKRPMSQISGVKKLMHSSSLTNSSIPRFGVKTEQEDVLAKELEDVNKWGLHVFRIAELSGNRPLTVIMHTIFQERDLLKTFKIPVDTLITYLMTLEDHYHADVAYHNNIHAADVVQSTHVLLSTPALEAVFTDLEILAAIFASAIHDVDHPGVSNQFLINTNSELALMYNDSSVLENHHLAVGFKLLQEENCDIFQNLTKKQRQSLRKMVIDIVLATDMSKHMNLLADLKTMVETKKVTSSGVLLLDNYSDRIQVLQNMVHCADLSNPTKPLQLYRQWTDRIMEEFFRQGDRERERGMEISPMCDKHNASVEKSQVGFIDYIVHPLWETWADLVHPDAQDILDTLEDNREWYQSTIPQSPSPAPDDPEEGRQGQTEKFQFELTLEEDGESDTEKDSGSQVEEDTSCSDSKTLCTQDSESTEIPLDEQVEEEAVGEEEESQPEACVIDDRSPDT
Chain of cGMP-inhibited 3',5'-cyclic phosphodiesterase 3A (Q14432 whole entry): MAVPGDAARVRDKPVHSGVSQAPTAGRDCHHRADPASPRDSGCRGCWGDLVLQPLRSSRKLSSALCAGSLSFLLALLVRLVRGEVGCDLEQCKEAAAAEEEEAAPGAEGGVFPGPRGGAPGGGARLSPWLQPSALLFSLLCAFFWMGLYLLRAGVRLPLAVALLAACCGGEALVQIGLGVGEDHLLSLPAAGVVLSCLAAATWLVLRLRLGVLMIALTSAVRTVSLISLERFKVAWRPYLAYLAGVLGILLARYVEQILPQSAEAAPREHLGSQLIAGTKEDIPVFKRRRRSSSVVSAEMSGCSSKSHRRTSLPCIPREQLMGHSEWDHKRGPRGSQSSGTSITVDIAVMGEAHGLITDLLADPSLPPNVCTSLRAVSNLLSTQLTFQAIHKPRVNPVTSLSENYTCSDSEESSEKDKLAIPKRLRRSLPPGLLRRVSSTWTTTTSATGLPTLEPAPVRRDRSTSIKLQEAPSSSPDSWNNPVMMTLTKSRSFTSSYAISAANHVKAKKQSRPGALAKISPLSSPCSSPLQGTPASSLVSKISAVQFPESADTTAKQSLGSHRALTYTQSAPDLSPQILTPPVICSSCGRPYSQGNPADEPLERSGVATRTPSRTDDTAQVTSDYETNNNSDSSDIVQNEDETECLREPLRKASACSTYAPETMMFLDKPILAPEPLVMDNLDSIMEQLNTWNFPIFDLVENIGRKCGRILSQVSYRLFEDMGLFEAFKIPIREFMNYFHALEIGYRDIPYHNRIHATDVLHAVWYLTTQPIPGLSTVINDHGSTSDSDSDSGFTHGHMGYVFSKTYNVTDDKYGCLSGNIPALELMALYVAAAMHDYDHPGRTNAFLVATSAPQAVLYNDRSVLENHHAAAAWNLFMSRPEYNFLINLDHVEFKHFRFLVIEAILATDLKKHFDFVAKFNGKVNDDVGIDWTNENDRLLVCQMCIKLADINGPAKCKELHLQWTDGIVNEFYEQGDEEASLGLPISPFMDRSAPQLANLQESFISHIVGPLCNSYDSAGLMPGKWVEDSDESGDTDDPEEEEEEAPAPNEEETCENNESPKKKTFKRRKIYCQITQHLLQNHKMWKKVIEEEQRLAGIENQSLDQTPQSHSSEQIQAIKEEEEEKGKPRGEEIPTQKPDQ
Chain of Motilin receptor (O43193 whole entry): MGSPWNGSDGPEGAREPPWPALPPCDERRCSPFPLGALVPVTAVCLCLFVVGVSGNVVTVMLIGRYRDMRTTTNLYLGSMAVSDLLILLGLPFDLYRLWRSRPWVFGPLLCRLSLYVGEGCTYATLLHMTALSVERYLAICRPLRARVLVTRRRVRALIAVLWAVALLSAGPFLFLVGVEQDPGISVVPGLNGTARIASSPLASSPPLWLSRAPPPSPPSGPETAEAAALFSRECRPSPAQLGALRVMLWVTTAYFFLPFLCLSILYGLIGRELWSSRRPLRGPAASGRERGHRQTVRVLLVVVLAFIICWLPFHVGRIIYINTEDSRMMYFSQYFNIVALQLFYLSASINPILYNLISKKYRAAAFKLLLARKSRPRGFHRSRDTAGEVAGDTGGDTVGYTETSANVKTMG
Chain of Histamine H2 receptor (P25021 whole entry): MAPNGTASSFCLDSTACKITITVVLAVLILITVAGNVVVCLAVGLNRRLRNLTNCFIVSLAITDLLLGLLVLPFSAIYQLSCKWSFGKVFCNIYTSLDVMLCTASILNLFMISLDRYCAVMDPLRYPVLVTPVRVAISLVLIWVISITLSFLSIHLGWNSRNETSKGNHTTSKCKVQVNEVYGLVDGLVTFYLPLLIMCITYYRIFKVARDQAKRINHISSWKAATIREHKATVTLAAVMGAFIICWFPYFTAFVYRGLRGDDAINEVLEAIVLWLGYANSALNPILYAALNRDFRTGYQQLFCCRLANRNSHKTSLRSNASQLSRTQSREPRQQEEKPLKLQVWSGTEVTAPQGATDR
Chain of Beta-1 adrenergic receptor (P08588 whole entry): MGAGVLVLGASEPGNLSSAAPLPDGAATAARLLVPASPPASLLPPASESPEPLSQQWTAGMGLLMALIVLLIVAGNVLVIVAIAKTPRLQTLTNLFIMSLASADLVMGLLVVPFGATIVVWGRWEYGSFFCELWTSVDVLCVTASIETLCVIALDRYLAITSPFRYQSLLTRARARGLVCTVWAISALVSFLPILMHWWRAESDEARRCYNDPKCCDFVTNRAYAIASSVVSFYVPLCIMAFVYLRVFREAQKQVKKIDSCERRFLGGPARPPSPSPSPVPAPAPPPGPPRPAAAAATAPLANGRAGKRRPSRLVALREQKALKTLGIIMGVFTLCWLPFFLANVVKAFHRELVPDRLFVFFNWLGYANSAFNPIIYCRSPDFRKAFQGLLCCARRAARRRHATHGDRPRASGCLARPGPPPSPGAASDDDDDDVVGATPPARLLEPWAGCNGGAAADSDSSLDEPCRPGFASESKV
Chain of Delta-type opioid receptor (P41143 whole entry): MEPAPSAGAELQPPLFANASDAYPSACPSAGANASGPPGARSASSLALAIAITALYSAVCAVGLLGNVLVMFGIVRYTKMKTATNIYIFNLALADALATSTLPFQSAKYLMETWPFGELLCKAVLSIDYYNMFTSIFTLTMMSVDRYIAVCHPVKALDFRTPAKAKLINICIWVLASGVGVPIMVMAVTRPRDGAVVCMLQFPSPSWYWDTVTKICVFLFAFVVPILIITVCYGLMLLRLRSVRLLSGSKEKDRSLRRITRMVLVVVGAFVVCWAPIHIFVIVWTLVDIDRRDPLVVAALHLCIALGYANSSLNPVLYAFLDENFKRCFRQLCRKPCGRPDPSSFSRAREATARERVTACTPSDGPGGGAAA

With C[C@]12CC[C@H](O)CC1=CC[C@@H]1[C@@H]2CC[C@]2(C)C(c3cccnc3)=CC[C@@H]12 [ABIRATERONE] as the molecule, how does the AC50 [1] read?
Its AC50 is over 30 µM.

And the AC50 [2]?
Its AC50 is over 10 µM.

What about the AC50 [3] of the same molecule?
The AC50 was over 30 µM.

What about the AC50 [4] of the same molecule?
The AC50 was over 30 µM.

What about the AC50 (Motilin receptor) of the same molecule?
Its AC50 is over 10 µM.

What about the AC50 (Histamine H2 receptor) of the same molecule?
The AC50 was over 10 µM.

And the AC50 [5]?
Its AC50 is over 30 µM.

And the AC50 [6]?
The AC50 was over 10 µM.

What about the AC50 [7] of the same molecule?
Its AC50 is over 10 µM.

What about the AC50 [8] of the same molecule?
The AC50 was over 30 µM.

And the AC50 [9]?
The AC50 was over 30 µM.

What does the source list for CC(=O)OCC[N+](C)(C)C [ACETYLCHOLINE]?
AC50 [1]: > 30 µM; AC50 [2]: > 10 µM; AC50 [3]: > 10 µM; AC50 [4]: > 30 µM; AC50 (Motilin receptor): > 30 µM; AC50 (Histamine H2 receptor): > 10 µM; AC50 [5]: > 30 µM; AC50 [6]: > 10 µM; AC50 [7]: 0.15 µM; AC50 [8]: > 30 µM; AC50 [9]: > 30 µM

Which AC50 [1] does the source give for CN(C)C(=O)Oc1cc(OC(=O)N(C)C)cc(C(O)CNC(C)(C)C)c1 (centres undefined) [BAMBUTEROL] here?
The AC50 was over 30 µM.

What about the AC50 (Motilin receptor) of the same molecule?
Its AC50 is over 30 µM.

And the AC50 [8]?
The AC50 was over 30 µM.

And the AC50 [9]?
The AC50 was over 30 µM.

For C[C@H]1C[C@H]2[C@@H]3CCC4=CC(=O)C=C[C@]4(C)[C@@]3(Cl)[C@@H](O)C[C@]2(C)[C@@]1(O)C(=O)CO [BECLOMETHASONE], which AC50 [1] is on record?
Its AC50 is over 30 µM.

And the AC50 [2]?
The AC50 was over 10 µM.

And the AC50 [3]?
The AC50 was over 30 µM.

And the AC50 [4]?
The AC50 was over 30 µM.

What about the AC50 (Motilin receptor) of the same molecule?
The AC50 was over 10 µM.

What about the AC50 [5] of the same molecule?
The AC50 was over 30 µM.

And the AC50 [6]?
The AC50 was over 10 µM.

And the AC50 [8]?
The AC50 was over 10 µM.

And the AC50 [9]?
The AC50 was over 10 µM.

For CO[C@@]1(NC(=O)CSCC#N)C(=O)N2C(C(=O)O)=C(CSc3nnnn3C)CS[C@@H]21 [CEFMETAZOLE], which AC50 [2] is on record?
Its AC50 is over 30 µM.

And the AC50 [3]?
Its AC50 is over 30 µM.

And the AC50 [4]?
Its AC50 is over 30 µM.

And the AC50 (Histamine H2 receptor)?
The AC50 was over 30 µM.

And the AC50 [5]?
The AC50 was over 30 µM.

And the AC50 [6]?
The AC50 was over 30 µM.

What about the AC50 [7] of the same molecule?
The AC50 was over 30 µM.

For CO/N=C(\C(=O)N[C@@H]1C(=O)N2C(C(=O)[O-])=C(C[n+]3cccc4c3CCC4)CS[C@H]12)c1csc(N)n1 [CEFPIROME], which AC50 [2] is on record?
The AC50 was over 30 µM.

And the AC50 [3]?
Its AC50 is over 30 µM.

What about the AC50 [4] of the same molecule?
The AC50 was over 30 µM.

And the AC50 (Histamine H2 receptor)?
Its AC50 is over 30 µM.

And the AC50 [5]?
Its AC50 is over 30 µM.

What about the AC50 [6] of the same molecule?
The AC50 was over 30 µM.

And the AC50 [7]?
Its AC50 is over 30 µM.

With NS(=O)(=O)c1cc(C2(O)NC(=O)c3ccccc32)ccc1Cl (centres undefined) [CHLORTHALIDONE] as the molecule, how does the AC50 [1] read?
The AC50 was over 10 µM.

What about the AC50 [2] of the same molecule?
Its AC50 is over 10 µM.

What about the AC50 [4] of the same molecule?
The AC50 was over 30 µM.

What about the AC50 (Motilin receptor) of the same molecule?
Its AC50 is over 10 µM.

What about the AC50 (Histamine H2 receptor) of the same molecule?
The AC50 was over 10 µM.

And the AC50 [5]?
The AC50 was over 30 µM.

And the AC50 [6]?
The AC50 was over 10 µM.

And the AC50 [7]?
Its AC50 is over 10 µM.

What about the AC50 [8] of the same molecule?
The AC50 was over 10 µM.

And the AC50 [9]?
The AC50 was over 10 µM.

Which results are given for CC[C@H]1OC(=O)[C@H](C)[C@@H](O[C@H]2C[C@@](C)(OC)[C@@H](O)[C@H](C)O2)[C@H](C)[C@@H](O[C@@H]2O[C@H](C)C[C@H](N(C)C)[C@H]2O)[C@](C)(OC)C[C@@H](C)C(=O)[C@H](C)[C@@H](O)[C@]1(C)O [CLARITHROMYCIN]?
AC50 [1]: > 30 µM; AC50 [4]: > 30 µM; AC50 (Motilin receptor): > 30 µM; AC50 (Histamine H2 receptor): > 30 µM; AC50 [5]: > 30 µM; AC50 [6]: > 30 µM; AC50 [7]: > 30 µM; AC50 [8]: > 30 µM; AC50 [9]: > 30 µM

Which results are given for C[C@@H]1CCC[C@H](C)N1NC(=O)c1ccc(Cl)c(S(N)(=O)=O)c1 [CLOPAMIDE]?
AC50 [1]: > 30 µM; AC50 [2]: > 30 µM; AC50 [3]: > 30 µM; AC50 [4]: > 30 µM; AC50 (Motilin receptor): > 30 µM; AC50 (Histamine H2 receptor): > 30 µM; AC50 [5]: > 30 µM; AC50 [6]: > 30 µM; AC50 [7]: > 30 µM; AC50 [8]: > 30 µM; AC50 [9]: > 30 µM

COc1ccc2c(c1)[C@]13CCCC[C@@H]1[C@H](C2)N(C)CC3 [DEXTROMETHORPHAN] was tested. Which AC50 [1] did it give?
Its AC50 is over 30 µM.

What about the AC50 [3] of the same molecule?
Its AC50 is over 10 µM.

And the AC50 [4]?
The AC50 was over 30 µM.

What about the AC50 (Motilin receptor) of the same molecule?
Its AC50 is over 10 µM.

What about the AC50 (Histamine H2 receptor) of the same molecule?
The AC50 was over 10 µM.

What about the AC50 [5] of the same molecule?
Its AC50 is over 30 µM.

And the AC50 [6]?
The AC50 was 11 µM.

What about the AC50 [7] of the same molecule?
Its AC50 is over 10 µM.

And the AC50 [8]?
The AC50 was over 10 µM.

And the AC50 [9]?
Its AC50 is over 10 µM.
